Measured values reported in ChEMBL document CHEMBL1909514, “Imidazo[2,1-b]thiazole guanylhydrazones as RSK2 inhibitors” (Eur J Med Chem, 2011).
Activity calls are given as the source filed them.

Legend:
[1] = molecular target: T1, Aurora kinase A (Homo sapiens) (UniProt O14965); assay: Inhibition of Aurora kinase A assessed as inhibition of substrate phosphorylation using fluorescent peptide substrate up to 100 uM by microplate reader assay
T1 sequence (whole entry): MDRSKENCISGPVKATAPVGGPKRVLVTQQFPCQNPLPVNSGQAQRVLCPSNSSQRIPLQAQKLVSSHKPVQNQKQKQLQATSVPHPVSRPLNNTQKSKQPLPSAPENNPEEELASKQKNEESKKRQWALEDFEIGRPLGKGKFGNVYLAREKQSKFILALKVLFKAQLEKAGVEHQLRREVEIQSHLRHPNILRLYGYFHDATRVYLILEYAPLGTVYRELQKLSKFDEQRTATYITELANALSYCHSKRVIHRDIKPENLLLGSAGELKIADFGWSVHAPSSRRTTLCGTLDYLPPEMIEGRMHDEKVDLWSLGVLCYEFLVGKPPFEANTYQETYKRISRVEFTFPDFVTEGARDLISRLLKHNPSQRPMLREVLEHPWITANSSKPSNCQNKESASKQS

[2] = molecular target: T2, Ribosomal protein S6 kinase alpha-3 (Homo sapiens, UniProt P51812); assay: Inhibition of RSK2-mediated GSK3-beta Ser9 phosphorylation in TPA-induced human MCF7 cells at 10 nM pretreated for 30 mins by immunoblotting; assay type: cell-based
[3] = molecular target: T2, Ribosomal protein S6 kinase alpha-3
Description: Inhibition of RSK2 assessed as inhibition of substrate phosphorylation using fluorescent peptide substrate by microplate reader assay

[4] = molecular target: Serine/threonine-protein kinase Chk2 (Homo sapiens, UniProt O96017)
Description: Inhibition of CHK2 assessed as inhibition of substrate phosphorylation using fluorescent peptide substrate by microplate reader assay

[5] = molecular target: T3, Serine/threonine-protein kinase Chk1 (Homo sapiens, UniProt O14757)
T3 sequence (O14757 whole entry): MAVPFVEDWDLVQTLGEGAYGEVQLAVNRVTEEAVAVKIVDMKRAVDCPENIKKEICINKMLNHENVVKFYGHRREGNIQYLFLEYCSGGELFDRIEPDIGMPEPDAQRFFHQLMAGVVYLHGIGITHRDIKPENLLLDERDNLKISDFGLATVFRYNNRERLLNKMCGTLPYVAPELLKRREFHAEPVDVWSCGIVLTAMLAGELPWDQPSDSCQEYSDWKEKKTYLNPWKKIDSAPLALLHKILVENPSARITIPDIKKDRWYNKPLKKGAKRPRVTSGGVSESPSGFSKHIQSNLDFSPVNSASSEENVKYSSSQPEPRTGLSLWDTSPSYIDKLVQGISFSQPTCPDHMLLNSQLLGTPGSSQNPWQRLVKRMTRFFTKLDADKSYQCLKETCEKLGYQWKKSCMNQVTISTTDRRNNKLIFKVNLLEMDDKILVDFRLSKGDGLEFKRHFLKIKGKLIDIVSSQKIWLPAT
Description: Inhibition of CHK1 assessed as inhibition of substrate phosphorylation using fluorescent peptide substrate by microplate reader assay

[6] = molecular target: T2, Ribosomal protein S6 kinase alpha-3; assay: Inhibition of RSK2-mediated GSK3alpha Ser21 phosphorylation in TPA-induced human MCF7 cells at 10 nM pretreated for 30 mins by immunoblotting; assay type: cell-based
MCF-10A = assay: Antiproliferative activity against human MCF10A cells assessed as reduction in cell viability after 48 hrs celltiter glo assay; assay type: cell-based
MCF7 = assay: Antiproliferative activity against human MCF7 cells assessed as reduction in cell viability after 48 hrs celltiter glo assay; assay type: functional, cell-based

T2 sequence (P51812 whole entry): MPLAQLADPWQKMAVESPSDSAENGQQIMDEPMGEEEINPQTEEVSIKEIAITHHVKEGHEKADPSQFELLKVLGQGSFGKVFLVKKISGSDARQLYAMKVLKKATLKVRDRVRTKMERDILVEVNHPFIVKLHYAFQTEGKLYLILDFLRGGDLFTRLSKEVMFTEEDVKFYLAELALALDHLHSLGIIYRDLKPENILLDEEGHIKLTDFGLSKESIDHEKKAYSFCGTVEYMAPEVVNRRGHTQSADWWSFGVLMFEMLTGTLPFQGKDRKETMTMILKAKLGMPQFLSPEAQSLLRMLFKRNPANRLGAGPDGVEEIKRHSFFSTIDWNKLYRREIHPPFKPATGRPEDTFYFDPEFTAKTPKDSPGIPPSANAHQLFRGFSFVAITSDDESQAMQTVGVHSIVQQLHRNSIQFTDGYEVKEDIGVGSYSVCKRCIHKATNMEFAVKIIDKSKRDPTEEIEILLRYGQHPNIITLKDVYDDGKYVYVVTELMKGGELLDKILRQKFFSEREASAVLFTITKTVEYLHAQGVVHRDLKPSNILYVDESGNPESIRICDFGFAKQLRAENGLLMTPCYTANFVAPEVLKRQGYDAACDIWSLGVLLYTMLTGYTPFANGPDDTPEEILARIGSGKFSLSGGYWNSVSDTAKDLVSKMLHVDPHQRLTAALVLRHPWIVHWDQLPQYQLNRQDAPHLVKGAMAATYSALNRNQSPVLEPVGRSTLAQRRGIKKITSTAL
Sequence of Serine/threonine-protein kinase Chk2 (O96017 whole entry): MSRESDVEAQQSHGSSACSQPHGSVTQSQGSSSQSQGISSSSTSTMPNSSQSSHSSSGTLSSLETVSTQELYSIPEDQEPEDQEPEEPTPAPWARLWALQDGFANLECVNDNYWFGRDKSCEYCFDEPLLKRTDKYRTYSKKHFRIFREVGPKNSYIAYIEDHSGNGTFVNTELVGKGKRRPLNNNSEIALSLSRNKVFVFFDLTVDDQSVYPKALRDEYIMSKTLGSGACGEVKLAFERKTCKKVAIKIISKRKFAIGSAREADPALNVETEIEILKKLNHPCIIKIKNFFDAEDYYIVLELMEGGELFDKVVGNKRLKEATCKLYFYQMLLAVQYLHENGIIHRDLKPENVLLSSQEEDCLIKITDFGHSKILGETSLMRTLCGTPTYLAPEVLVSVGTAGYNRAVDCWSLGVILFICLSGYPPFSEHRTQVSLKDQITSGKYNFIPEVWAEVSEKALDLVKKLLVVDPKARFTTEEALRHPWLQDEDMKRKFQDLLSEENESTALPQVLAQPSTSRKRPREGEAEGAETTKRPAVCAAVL

Structure (SMILES)	inhibition [1]	inhibition [2] [%]	IC50 [3] [µM]	IC50 [4] [µM]	IC50 [5] [µM]	inhibition [6] [%]	Activity (MCF-10A)	Activity (MCF7)
N=C(N)N/N=C/c1c(-c2ccc([N+](=O)[O-])cc2)nc2sc(Cl)cn12	50%	50	0.97	78.8	> 100	50	–	–
Cc1cn2c(/C=N\NC(=N)N)c(-c3ccc(F)cc3)nc2s1	inactive	–	> 100	> 50	> 100	–	–	–
N=C(N)N/N=C/c1c(-c2cc(Cl)sc2Cl)nc2sc(Cl)cn12	inactive	–	8.26	> 100	> 100	–	–	–
N=C(N)N/N=C\c1c(-c2ccc(F)cc2)nc2sccn12	inactive	–	> 100	> 100	> 100	–	–	–
N=C(N)N/N=C/c1c(-c2cc(Cl)sc2Cl)nc2sc3ccccc3n12	inactive	–	12	> 100	> 100	–	–	–
COc1cc([N+](=O)[O-])c(OC)cc1-c1nc2ccccn2c1/C=N/NC(=N)N	inactive	–	7.8	> 100	> 100	–	–	–
Cc1cn2c(/C=N/NC(=N)N)c(-c3ccc([N+](=O)[O-])cc3)nc2s1.Cl	–	–	2.8	83	> 100	–	Toxic	Active
N=C(N)N/N=C/c1c(-c2ccc(F)c([N+](=O)[O-])c2)nc2sc(Cl)cn12	inactive	–	3.93	41.3	> 100	–	–	–
Cl.N=C(N)N/N=C/c1c(-c2ccc(Cl)c([N+](=O)[O-])c2)nc2sc(Cl)cn12	–	–	5.85	90	> 100	–	Non-toxic	Active
N#Cc1ccc(-c2nc3sc(Cl)cn3c2/C=N/NC(=N)N)cc1	inactive	–	8.55	93.5	> 100	–	–	–
Cl.N=C(N)N/N=C/c1c(-c2ccc(Cl)c([N+](=O)[O-])c2)nc2sccn12	–	–	3.13	81	> 100	–	Non-toxic	Active
Cc1cn2c(/C=N\NC(=N)N)c(-c3ccc(F)c([N+](=O)[O-])c3)nc2s1	inactive	–	30.7	18.8	78.5	–	–	–
COc1cc([N+](=O)[O-])c(OC)cc1-c1nc2sc3ccccc3n2c1/C=N/NC(=N)N	inactive	–	10.1	> 100	> 100	–	–	–
Cl.N=C(N)N/N=C\c1c(-c2ccc([N+](=O)[O-])cc2)nc2sc(F)cn12	inactive	50	2.15	56.5	> 100	50	Non-toxic	Active
COc1cc([N+](=O)[O-])c(OC)cc1-c1nc2sc(Cl)cn2c1/C=N/NC(=N)N/N=C/c1c(-c2cc(OC)c([N+](=O)[O-])cc2OC)nc2sc(Cl)cn12	–	–	11.4	> 100	> 100	–	–	–
N=C(N)N/N=C/c1c(-c2cc([N+](=O)[O-])c(Cl)cc2Cl)nc2sccn12	–	–	5.93	> 100	> 100	–	–	–
N=C(N)N/N=C/c1c(-c2ccc(Cl)c([N+](=O)[O-])c2)nc2ccccn12	–	–	2.89	79	> 100	–	–	–
N=C(N)N/N=C/c1c(-c2cccc([N+](=O)[O-])c2)nc2sccn12	–	–	18.5	> 100	> 100	–	–	–
Cc1cn2c(/C=N/NC(=N)N)c(-c3cc([N+](=O)[O-])c(Cl)cc3Cl)nc2s1	–	–	4.53	> 100	> 100	–	–	–
Cc1sc2nc(-c3ccc(Cl)c([N+](=O)[O-])c3)c(/C=N/NC(=N)N)n2c1C	–	–	13.9	48.5	> 100	–	–	–
CCCc1cn2c(/C=N/NC(=N)N)c(-c3cc([N+](=O)[O-])c(Cl)cc3Cl)nc2s1	–	–	5.97	> 100	> 100	–	–	–
N=C(N)N/N=C\c1c(-c2ccc(Br)c([N+](=O)[O-])c2)nc2sccn12	inactive	–	56.7	> 100	> 100	–	–	–
N=C(N)N/N=C/c1c(-c2ccc(F)cc2)nc2sc(Cl)cn12	inactive	–	86	90	> 100	–	–	–
CCCc1cn2c(/C=N/NC(=N)N)c(-c3ccc([N+](=O)[O-])cc3)nc2s1	–	–	20.9	> 100	> 100	–	–	–
Cc1csc2nc(-c3cccnc3)c(/C=N/NC(=N)N)n12	–	–	100	34.3	> 100	–	–	–
N=C(N)N/N=C/c1c(-c2cc(Cl)sc2Cl)nc2sccn12	–	–	79	65	> 100	–	–	–
N=C(N)N/N=C\c1c(-c2ccc(F)c([N+](=O)[O-])c2)nc2sccn12	inactive	–	53.8	77.5	> 100	–	–	–
N=C(N)N/N=C/c1c(-c2cccc([N+](=O)[O-])c2)nc2sc(Cl)cn12	–	–	6.03	> 100	> 100	–	–	–
